Measured values reported in patent US5543517A, “Substituted bicyclic phosphoramides and derivatives thereof” (The DuPont Merck Pharmaceutical Company, priority 1994, dated 1996).
≈ marks a conversion by molar mass, not a printed value. Like-named read-outs stand apart in the source and are kept apart here.

How the values were obtained:
HIV-1 protease = target: T1, HIV-1 protease (HIV-1 M:B_HXB2R, UniProt P04585); assay: HIV protease inhibition assay (HPLC method); type: biochemical; details: pH 5.5, 30° C., 1 hr
T1 construct: cut from Gag-Pol polyprotein
Procedure: The Ki values in TABLE 1 were determined using the assay conditions described below under HIV Protease Inhibition Assay (HPLC Method). The Ki values are indicated as follows: +++=<10 nM; ++=10 nM to 1 μM; +=>[…].
HIV PROTEASE INHIBITION ASSAY (HPLC METHOD)
Protease: Inclusion bodies of E. coli harboring plasmid T1718R with a synthetic gene coding for a single-chain tethered dimer of HIV protease were prepared as described in Cheng et al. Proc. Natl. Acad. Sci. USA 1990, 87, 9660. Active protease was prepared as described therein by extraction with 67% acetic acid, dilution 33-fold with water, dialysis against water and then against a "refolding buffer" comprising 20 mM MES, 1 mM dithiothreitol and 10% glycerol, pH 5.5. Protease was stored as a stock preparation at 10 uM in refolding buffer.
Substrate: Peptide of the sequence aminobenzoyl-Ala-Thr-His-Gln-Val-Tyr-Phe(NO2)-Val-Arg-Lys-Ala containing p-nitrophenylalanine (Phe(NO2)), was prepared by solid phase synthesis as previously described (Cheng et al. Proc. Natl. Acad. Sci. USA 1990, 87, 9660). Stock solutions of 2 mM substrate were prepared in DMSO.
Inhibitory compounds were dissolved in sufficient DMSO to make 3 mM stock solutions. All further dilutions were prepared in "assay buffer" comprising 1M NaCl, 50 mM MES, pH 5.5, 1 mM EDTA, 1 mM DTT and 20% glycerol.
Enzyme reaction: To a 2 mL screw-cap centrifuge tube were added 50 uL protease (final concentration 0.25 nM) and 0.1 mL inhibitor compound (final concentration 0.1-12,500 nM). After 15 min preincubation at room temperature, the reaction was started by the addition of 0.05 mL substrate (final concentration 5 uM). Incubation was carried out at 30° C. for 1 hr. The reaction was stopped by addition of 1 mL of 0.1M ammonium hydroxide solution.
HPLC measurement of product formation: The product (aminobenzoyl-Ala-Thr-His-Gln-Val-Tyr) was separated from substrate on a Pharmacia MonoQ anion exchange column. The injection volume was 0.2 mL. The mobile phases comprised: solution A (20 mM tris HCl, pH 9.0, 0.02% sodium azide, 10% acetonitrile), and solution B (20 mM tris HCl, pH 9.0, 0.02% sodium azide, 0.5M ammonium formate, 10% acetonitrile). The mobile phases were pumped at 1 mL/min, with a gradient from 0 to 30% B in 5 min, 100% B for 4 min to wash the column, and a re-equilibration wash with A for 4 min. The retention time of the product was 3.6 min. Detection with a Shimadzu model RF535 fluorescence monitor was at 330 nm (excitation) and 430 nm (emission). The Ki was calculated from the formula Ki=I/(((Km+S-FA*S)/(FA*Km))-1) where I=inhibitor concentration, S=substrate concentration, FA=fractional activity=cm peak height with inhibitor/cm peak height without inhibitor and Km=Michaelis constant=20 uM.

HIV-1 (RF) = assay: HIV RNA assay (microplate based compound evaluation in HIV-1 infected MT-2 cells); type: cell-based
Procedure: DNA Plasmids and In Vitro RNA Transcripts
Plasmid pDAB 72 containing both gag and pol sequences of BH10 (bp 113-1816) cloned into PTZ 19R was prepared according to Erickson-Viitanen et al. AIDS Research and Human Retroviruses 1989, 5, 577. The plasmid was linearized with Bam HI prior to the generation of in vitro RNA transcripts using the Riboprobe Gemini system II kit (Promega) with T7 RNA polymerase. Synthesized RNA was purified by treatment with RNase free DNAse (Promega), phenol-chloroform extraction, and ethanol precipitation. RNA transcripts were dissolved in water, and stored at -70° C. The concentration of RNA was determined from the A260.
Biotinylated capture probes were purified by HPLC after synthesis on an Applied Biosystems (Foster City, Calif.) DNA synthesizer by addition of biotin to the 5' terminal end of the oligonucleotide, using the biotinphosphoramidite reagent of Cocuzza, Tet. Lett. 1989, 30, 6287. The gag biotinylated capture probe (5-biotin-[…] 3') was complementary to nucleotides 889-912 of HXB2 and the pol biotinylated capture probe (5'-biotin --[…] 3') was complementary to nucleotides 2374-2395 of HXB2. Alkaline phosphatase conjugated oligonucleotides used as reporter probes were prepared by Syngene (San Diego, Calif.). The pol reporter probe (5' […] 3') was complementary to nucleotides 2403-2425 of HXB2. The gag reporter probe (5' […] 3') was complementary to nucleotides 950-973 of HXB2. All nucleotide positions are those of the GenBank Genetic Sequence Data Bank as accessed through the Genetics Computer Group Sequence Analysis Software Package (Devereau Nucleic Acids Research 1984, 12, 387). The reporter probes were prepared as 0.5 μM stocks in 2×SSC(0.3M NaCl, 0.03M sodium citrate), 0.05M Tris pH 8.8, 1 mg/mL BSA. The biotinylated capture probes were prepared as 100 μM stocks in water.
Streptavidin Coated Plates
Nunc-immunomodule microtiter plate strips were coated by addition of 200 μL of streptavidin (30 μg/mL, Scripps, La Jolla, Calif.) in freshly prepared 10 mM sodium carbonate (pH 9.6). Plates were incubated overnight at 4° C. Streptavidin solution was aspirated from the wells and a blocking buffer composed of phosphate buffered saline (PBS), 20 mg/mL bovine serum albumin (crystalline, nuclease and protease free, Calbiochem) and 100 mg/mL lactose (Sigma) was added to the plates for 3 hrs at room temperature. Blocking buffer was removed from the wells, which were allowed to dry overnight at room temperature and subsequently stored at 4° C. in zip lock bags with desiccant. For the majority of the compound evaluation experiments, streptavidin coated plates were obtained from Du Pont Biotechnology Systems (Boston, Mass.).
MT-2, CEM, and H9 cells were maintained in RPMI 1640 supplemented with 5% fetal calf serum (FCS), 2 mM L-glutamine and 50 μg/mL gentamycin, all from Gibco. Laboratory strains of HIV-1 (RF, MN and IIIB) were propagated in H9 cells in the same medium. Virus stocks were prepared approximately 1 month after acute infection of H9 cells by clarification of the tissue culture medium and storage of aliquots at -70° C. Infectious titers of HIV-1 (RF) stocks were 1-3×10^7 PFU (plaque forming units)/mL as measured by plaque assay on MT-2 cells (see below). Each aliquot of virus stock used for infection was thawed only once. In some cases, infected H9 cells were shifted to Dulbecco's modified Eagle's medium 3-10 days before collection of virus in order to generate virus stocks in medium with low biotin content. Clinical isolates of HIV that had been passaged once in MT-2 cells were used to infect fresh MT-2 cells in RPMI medium. Three days after infection, cells were pelleted, resuspended and culture continued in Dulbecco's modified Eagle's medium as above. Virus stocks of clinical isolates were prepared 10-15 days after infection when cytopathic effects were apparent in the culture. […]

HIV (3B) or HIV (RF) = assay: HIV yield reduction cell assay (plaque assay, MT-2 cells); type: cell-based; details: Human immunodeficiency virus 1, MT2, 72 h, 3 days
Procedure: HIV YIELD REDUCTION CELL ASSAY
The following procedure is additionally described in Smallheer et al. Antiviral Chemistry and Chemotherapy 1993, 4(1), 27.
MT-2, a human T-cell line, was cultured in RPMI medium supplemented with 5% (v/v) heat inactivated fetal calf serum (FCS), 2 mM L-glutamine and 50 μg/mL gentamycin (later two compounds available from Gibco) Human immunodeficiency virus strains, HIV (3B) and HIV (RF) were propagated in H-9 cells in RPMI with 5% FCS. Poly-L-lysine (Sigma) coated cell culture plates were prepared according to the method of Harada et al. Science 1985, 229 563. MTT, (3-(4,5-dimethyl-thiazol-2-yl)-2,5-diphenyltetrazolium bromide), was obtained from Sigma.
Method: Test compounds were dissolved in dimethylsulfoxide to 5 mg/mL and serially diluted into RPMI medium to ten times the desired final concentration. […]
The virus titers of the progeny virus produced in the presence or absence of test compounds were determined by plaque assay. […] Clear plaques on a purple background were counted and the number of plaque forming units of virus was calculated for each sample. The antiviral activity of test compounds was determined by the percent reduction in the virus titer with respect to virus grown in the absence of inhibitor. The IC90 values in TABLE 2 were determined using the assay conditions described above under HIV Yield Reduction Assay. […]

[1] = Human immunodeficiency virus 1, MT2, 72 h, HIV RNA assay, HIV-1 (RF) infected MT-2 cells, 3 days, 37° C., read-out: IC90

Row | SMILES | Ki (HIV-1 protease) | IC90 (HIV-1 (RF); [1]) | IC90 (HIV (3B) or HIV (RF)) | IC90 (HIV-1 (RF); Human immunodeficiency virus 1, MT2, HIV-1 (RF), MT-2 cells, virus dilution selected to give this value, read-out: IC90 value (concentration of compound required to reduce the HIV RNA level by 90%))
1 | O=P12O[C@H]([C@@H](O)[C@@H](Cc3ccccc3)N1Cc1cccc(CO)c1)[C@@H](Cc1ccccc1)N2Cc1cccc(CO)c1 [Example 8C, (3-endo,4-endo,6-exo)-2,7-Bis(3-(hydroxymethyl)phenylmethyl)-3,6-bis(phenylmethyl)-8-oxa-2,7-diaza-1-phosphabicyclo[3.2.1]octan-4-ol 1-oxide] | < 10 nM | < 10 µg/mL | – | –
2 | O=P12O[C@H]([C@@H](O)[C@@H](Cc3ccccc3)N1Cc1ccc3ccccc3c1)[C@@H](Cc1ccccc1)N2Cc1ccc2ccccc2c1 [Example 2C, (3-endo,4-endo,6-exo)-2,7-Bis(2-naphthalenylmethyl)-3,6-bis(phenylmethyl)-8-oxa-2,7-diaza-1-phosphabicyclo[3.2.1]octan-4-ol 1-oxide] | 10 to 1000 nM | > 50 µg/mL | – | –
3 | O=P12O[C@H]([C@@H](O)[C@@H](Cc3ccccc3)N1Cc1ccc(CO)cc1)[C@@H](Cc1ccccc1)N2Cc1ccc(CO)cc1 [Example 5C, (3-endo,4-endo,6-exo)-2,7-Bis(4-(hydroxymethyl)phenylmethyl)-3,6-bis(phenylmethyl)-8-oxa-2,7-diaza-1-phosphabicyclo[3.2.1]octan-4-ol 1-oxide] | < 10 nM | < 10 µg/mL | < 10 µg/mL | –
4 | O=P12O[C@H]([C@@H](O)[C@@H](Cc3ccccc3)N1CC1CC1)[C@@H](Cc1ccccc1)N2CC1CC1 [Example 1F, (3-endo,4-endo,6-exo)-2,7-Bis(cyclopropylmethyl)-3,6-bis(phenylmethyl)-8-oxa-2,7-diaza-1-phosphabicyclo [3.2.1]octan-4-ol 1-oxide] | 10 to 1000 nM | 10 to 100 µg/mL (≈ 22.1 to 221 µM) | – | –
5 | O=P12O[C@H]([C@@H](O)[C@@H](Cc3ccccc3)N1Cc1ccc(O)cc1)[C@@H](Cc1ccccc1)N2Cc1ccc(O)cc1 [Example 7D, (3-endo,4-endo,6-exo)-2,7-bis(4-hydroxyphenylmethyl)-3,6-bis(phenylmethyl)-8-oxa-2,7-diaza-1-phosphabicyclo[3.2.1]octan-4-ol 1-oxide] | < 10 nM | < 10 µg/mL | – | –
6 | CNc1cccc(CN2[C@H](Cc3ccccc3)[C@H](O)[C@H]3OP2(=O)N(Cc2cccc(NC)c2)[C@@H]3Cc2ccccc2)c1 [Example 6D] | 10 to 1000 nM | < 10 µg/mL | – | –
7 | CCCCN1[C@H](Cc2ccccc2)[C@H](O)[C@H]2OP1(=O)N(CCCC)[C@@H]2Cc1ccccc1 [Example 3C, (3-endo,4-endo,6-exo)-2,7-Bis(butyl)-3,6-bis(phenylmethyl)-8-oxa-2,7-diaza-1-phosphabicyclo[3.2.1]octan-4-ol 1-oxide] | 10 to 1000 nM | > 50 µg/mL | – | –
8 | O=P12O[C@H]([C@@H](O)[C@@H](Cc3ccccc3)N1Cc1ccccc1)[C@@H](Cc1ccccc1)N2Cc1ccccc1 [Example 4E, (3-endo,4-endo,6-exo)-2,3,6,7-tetrakis (phenylmethyl)-8-oxa-2,7-diaza-1-phosphabicyclo[3.2.1]octan-4-ol 1-oxide] | 10 to 1000 nM | 10 to 100 µg/mL (≈ 19.1 to 191 µM) | – | –
9 | Nc1ccn([C@H]2CC[C@@H](CO)O2)c(=O)n1 [ddC, dideoxycytidine, reference compound] | – | – | – | 0.2 µg/mL (≈ 0.947 µM)
